# How the values were obtained:
# Cytochrome P450 2D6 = Cytochrome P450 2D6 (Homo sapiens, UniProt P10635); assay: Inhibition of human recombinant CYP2D6 incubated for 15 mins prior to substrate addition measured after 30 mins by spectrophotometry; assay type: ADME
# Cytochrome P450 2B6 = molecular target: T1, Cytochrome P450 2B6 (Homo sapiens, UniProt P20813); assay: Inhibition of human recombinant CYP2B6 incubated for 15 mins prior to substrate addition measured after 30 mins by spectrophotometry; assay type: ADME
# T1 sequence (P20813 whole entry): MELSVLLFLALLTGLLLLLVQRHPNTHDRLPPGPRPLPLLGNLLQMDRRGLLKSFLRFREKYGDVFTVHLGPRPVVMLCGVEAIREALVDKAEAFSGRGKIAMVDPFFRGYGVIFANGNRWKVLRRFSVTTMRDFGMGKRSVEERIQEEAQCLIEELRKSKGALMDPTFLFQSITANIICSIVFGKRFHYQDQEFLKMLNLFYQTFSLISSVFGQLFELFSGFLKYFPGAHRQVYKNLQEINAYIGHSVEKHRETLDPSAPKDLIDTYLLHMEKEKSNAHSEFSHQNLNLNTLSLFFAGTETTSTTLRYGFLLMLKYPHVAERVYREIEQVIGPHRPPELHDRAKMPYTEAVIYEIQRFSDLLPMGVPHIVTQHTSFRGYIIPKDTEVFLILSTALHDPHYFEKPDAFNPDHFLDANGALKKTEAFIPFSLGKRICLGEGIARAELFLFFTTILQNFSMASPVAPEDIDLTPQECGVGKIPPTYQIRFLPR
# Cytochrome P450 1A2 = molecular target: T2, Cytochrome P450 1A2 (Homo sapiens, UniProt P05177); assay: Inhibition of human recombinant CYP1A2 incubated for 15 mins prior to substrate addition measured after 30 mins by spectrophotometry; assay type: ADME
# T2 sequence (P05177 whole entry): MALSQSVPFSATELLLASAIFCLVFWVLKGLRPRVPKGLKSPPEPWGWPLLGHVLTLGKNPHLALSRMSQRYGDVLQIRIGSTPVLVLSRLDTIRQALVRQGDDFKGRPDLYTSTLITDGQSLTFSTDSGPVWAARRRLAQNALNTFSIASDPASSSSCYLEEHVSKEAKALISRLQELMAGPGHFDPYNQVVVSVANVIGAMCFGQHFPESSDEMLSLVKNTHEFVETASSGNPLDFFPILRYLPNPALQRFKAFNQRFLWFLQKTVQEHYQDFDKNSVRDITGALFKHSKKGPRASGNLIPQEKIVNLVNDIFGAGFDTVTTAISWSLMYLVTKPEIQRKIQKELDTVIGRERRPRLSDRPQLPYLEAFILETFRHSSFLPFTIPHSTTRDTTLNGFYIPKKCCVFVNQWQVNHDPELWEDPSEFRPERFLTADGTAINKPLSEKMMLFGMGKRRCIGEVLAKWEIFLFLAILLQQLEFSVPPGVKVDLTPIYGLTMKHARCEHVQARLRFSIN
# Cytochrome P450 3A4 = Cytochrome P450 3A4 (Homo sapiens, UniProt P08684); assay: Inhibition of human recombinant CYP3A4 incubated for 15 mins prior to substrate addition measured after 30 mins by spectrophotometry; assay type: ADME
# [1] = molecular target: T3, Prostaglandin D2 receptor 2 (Homo sapiens, UniProt Q9Y5Y4); assay: Displacement of [3HPGD2 from human CRTH2 receptor expressed in CHO cell membrane after 90 mins by scintillation proximity assay; assay type: cell membranes
# T3 sequence (Q9Y5Y4 whole entry): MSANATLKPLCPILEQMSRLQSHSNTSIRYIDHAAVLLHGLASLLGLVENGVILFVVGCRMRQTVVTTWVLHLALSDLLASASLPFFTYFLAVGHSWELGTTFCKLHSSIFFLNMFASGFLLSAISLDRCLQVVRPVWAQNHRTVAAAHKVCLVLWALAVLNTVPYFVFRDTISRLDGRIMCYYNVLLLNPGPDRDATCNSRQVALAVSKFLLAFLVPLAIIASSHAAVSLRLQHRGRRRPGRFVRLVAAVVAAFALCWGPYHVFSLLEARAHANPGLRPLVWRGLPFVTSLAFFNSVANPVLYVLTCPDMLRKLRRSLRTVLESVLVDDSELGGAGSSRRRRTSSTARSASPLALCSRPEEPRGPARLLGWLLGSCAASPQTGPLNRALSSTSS
# Cytochrome P450 2C9 = Cytochrome P450 2C9 (Homo sapiens, UniProt P11712); assay: Inhibition of human recombinant CYP2C9 incubated for 15 mins prior to substrate addition measured after 30 mins by spectrophotometry; assay type: ADME
# Cytochrome P450 2C8 = molecular target: T4, Cytochrome P450 2C8 (Homo sapiens, UniProt P10632); assay: Inhibition of human recombinant CYP2C8 incubated for 15 mins prior to substrate addition measured after 30 mins by spectrophotometry; assay type: ADME
# T4 sequence (P10632 whole entry): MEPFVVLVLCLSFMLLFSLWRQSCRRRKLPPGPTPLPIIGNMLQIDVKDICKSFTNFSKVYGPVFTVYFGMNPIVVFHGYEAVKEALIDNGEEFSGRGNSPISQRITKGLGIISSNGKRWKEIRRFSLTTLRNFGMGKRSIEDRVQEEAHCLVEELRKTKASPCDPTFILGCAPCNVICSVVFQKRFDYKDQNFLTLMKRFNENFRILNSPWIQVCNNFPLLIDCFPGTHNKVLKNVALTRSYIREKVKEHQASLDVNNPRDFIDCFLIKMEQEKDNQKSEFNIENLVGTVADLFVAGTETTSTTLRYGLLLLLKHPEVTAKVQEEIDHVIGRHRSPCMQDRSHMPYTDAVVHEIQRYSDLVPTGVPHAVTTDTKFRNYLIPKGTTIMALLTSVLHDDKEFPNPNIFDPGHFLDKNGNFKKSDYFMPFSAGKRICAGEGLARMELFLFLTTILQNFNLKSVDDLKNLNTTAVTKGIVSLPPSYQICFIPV
# [2] = Half life in C57BL/6 mouse at 1 mg/kg, iv; assay type: ADME, organism-based; design: dose 1 mg/kg, route intravenous; settings: in vivo
# Cytochrome P450 2C19 = Cytochrome P450 2C19 (Homo sapiens, UniProt P33261); assay: Inhibition of human recombinant CYP2C19 incubated for 15 mins prior to substrate addition measured after 30 mins by spectrophotometry; assay type: ADME
# [3] = Intrinsic clearance in rat liver microsomes assessed per mg protein at 1 uM up to 45 mins by LC/MS analysis; assay type: ADME, Microsome; settings: read-out: CLH
# [4] = Intrinsic clearance in human liver microsomes assessed per mg protein at 1 uM up to 45 mins by LC/MS analysis; assay type: ADME, Microsome; settings: read-out: CLH
# [5] = Volume of distribution at steady state in C57BL/6 mouse at 1 mg/kg, iv and 5 mg/kg, po; assay type: ADME, organism-based; settings: in vivo, read-out: Vdss
# [6] = molecular target: T5, Prostaglandin D2 receptor 2 (Homo sapiens) (UniProt Q9Y5Y4); assay: Agonist activity at human CRTH2 receptor expressed in CHO cell membrane assessed as induction of [35S]GTPgammaS binding at 20 uM after 30 mins by microbeta scintillation counting relative to PGD2; assay type: functional, cell membranes
# T5 sequence (whole entry): T3 sequence (Q9Y5Y4 whole entry)
# [7] = molecular target: T5, Prostaglandin D2 receptor 2 (Homo sapiens); assay: Antagonist activity at human CRTH2 receptor expressed in CHO cell membrane assessed as inhibition of PGD2-induced [35S]GTPgammaS binding at 2 uM after 30 mins by microbeta scintillation counting relative to control; assay type: functional, cell membranes
# [8] = Apparent permeability across human Caco2 cells at 1 uM after 2 hrs by LC/MS analysis; assay type: ADME, cell-based; settings: Caco-2
# [9] = molecular target: T3, Prostaglandin D2 receptor 2; assay: Antagonist activity at human CRTH2 receptor expressed in CHO cell membrane assessed as inhibition of PGD2-induced [35S]GTPgammaS binding after 30 mins by microbeta scintillation counting; assay type: functional, cell membranes
# Cytochrome P450 2D6, sequence (P10635 whole entry): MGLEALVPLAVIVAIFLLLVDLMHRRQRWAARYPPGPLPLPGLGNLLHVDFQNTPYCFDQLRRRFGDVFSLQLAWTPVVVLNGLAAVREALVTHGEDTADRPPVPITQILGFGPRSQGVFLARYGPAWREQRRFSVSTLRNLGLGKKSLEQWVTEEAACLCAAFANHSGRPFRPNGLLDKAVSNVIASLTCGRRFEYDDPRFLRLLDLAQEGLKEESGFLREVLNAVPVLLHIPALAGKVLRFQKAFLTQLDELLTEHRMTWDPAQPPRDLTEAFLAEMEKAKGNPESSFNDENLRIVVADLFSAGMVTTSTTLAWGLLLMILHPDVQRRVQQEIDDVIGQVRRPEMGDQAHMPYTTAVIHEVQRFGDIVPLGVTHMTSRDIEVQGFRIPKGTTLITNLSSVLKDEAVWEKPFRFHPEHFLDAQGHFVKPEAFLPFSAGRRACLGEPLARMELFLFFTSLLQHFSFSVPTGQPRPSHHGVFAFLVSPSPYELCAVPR
# Cytochrome P450 3A4, sequence (P08684 whole entry): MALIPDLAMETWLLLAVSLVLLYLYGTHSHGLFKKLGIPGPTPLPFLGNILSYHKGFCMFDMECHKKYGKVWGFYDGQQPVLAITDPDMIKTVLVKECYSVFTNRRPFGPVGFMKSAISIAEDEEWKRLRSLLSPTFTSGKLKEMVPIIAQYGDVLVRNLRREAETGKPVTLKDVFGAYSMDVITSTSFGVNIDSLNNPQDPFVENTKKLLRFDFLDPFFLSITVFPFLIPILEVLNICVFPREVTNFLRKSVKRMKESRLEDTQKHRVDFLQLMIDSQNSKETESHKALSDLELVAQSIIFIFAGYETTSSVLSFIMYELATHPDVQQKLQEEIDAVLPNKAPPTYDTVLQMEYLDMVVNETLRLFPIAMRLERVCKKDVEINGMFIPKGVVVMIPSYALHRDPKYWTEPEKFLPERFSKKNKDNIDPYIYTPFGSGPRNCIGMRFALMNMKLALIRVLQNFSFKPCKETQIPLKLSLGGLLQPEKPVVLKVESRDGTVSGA
# Cytochrome P450 2C19, sequence (P33261 whole entry): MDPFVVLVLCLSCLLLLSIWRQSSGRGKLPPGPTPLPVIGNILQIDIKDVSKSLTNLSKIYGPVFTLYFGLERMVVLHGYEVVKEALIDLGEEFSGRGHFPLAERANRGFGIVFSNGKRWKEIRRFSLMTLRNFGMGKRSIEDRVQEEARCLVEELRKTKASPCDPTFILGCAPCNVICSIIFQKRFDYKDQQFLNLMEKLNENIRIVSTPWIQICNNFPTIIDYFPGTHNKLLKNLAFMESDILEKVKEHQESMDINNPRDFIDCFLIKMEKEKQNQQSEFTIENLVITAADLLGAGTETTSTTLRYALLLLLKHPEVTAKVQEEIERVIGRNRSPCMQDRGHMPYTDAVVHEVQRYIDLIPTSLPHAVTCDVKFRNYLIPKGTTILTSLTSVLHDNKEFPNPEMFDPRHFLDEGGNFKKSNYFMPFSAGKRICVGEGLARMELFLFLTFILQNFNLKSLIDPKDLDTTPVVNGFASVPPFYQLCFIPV
# Cytochrome P450 2C9, sequence (P11712 whole entry): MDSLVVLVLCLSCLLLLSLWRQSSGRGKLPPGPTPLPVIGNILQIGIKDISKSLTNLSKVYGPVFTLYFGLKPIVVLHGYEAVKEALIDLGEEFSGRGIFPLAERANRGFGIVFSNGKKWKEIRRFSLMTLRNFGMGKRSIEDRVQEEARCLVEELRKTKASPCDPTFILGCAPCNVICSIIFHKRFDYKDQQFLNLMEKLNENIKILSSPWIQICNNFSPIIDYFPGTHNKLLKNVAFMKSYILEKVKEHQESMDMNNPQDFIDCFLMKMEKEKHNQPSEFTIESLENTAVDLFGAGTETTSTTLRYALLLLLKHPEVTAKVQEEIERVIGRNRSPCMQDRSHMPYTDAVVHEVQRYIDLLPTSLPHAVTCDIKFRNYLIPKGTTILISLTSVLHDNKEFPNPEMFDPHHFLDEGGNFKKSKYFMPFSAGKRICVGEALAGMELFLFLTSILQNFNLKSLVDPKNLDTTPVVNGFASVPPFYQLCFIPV
IC50 (Cytochrome P450 2D6) [µM],IC50 (Cytochrome P450 2B6) [µM],IC50 (Cytochrome P450 1A2) [µM],IC50 (Cytochrome P450 3A4) [µM],Ki [1] [µM],IC50 (Cytochrome P450 2C9) [µM],IC50 (Cytochrome P450 2C8) [µM],half-life [2] [h],IC50 (Cytochrome P450 2C19) [µM],microsomal CLint at 1 µM [3] [µL/min/mg],microsomal CLint at 1 µM [4] [µL/min/mg],Vd [5] [L/kg],Emax [6] [%],inhibition [7] [%],"Papp at 2 h, 1 µM [8] [×10⁻⁶ cm/s]",IC50 [9] [µM],Compound
> 10,> 10,> 10,> 10,0.11,,,,,,,,,,,,CCC(=O)N(Cc1ccc(C(F)(F)F)cc1)c1cccc(-c2nnn[nH]2)c1
> 10,> 10,> 10,> 10,0.0077,,,,,,,,,,,,CCCCC(=O)N(Cc1ccc(OC(F)(F)F)cc1)c1cc(F)cc(-c2nnn[nH]2)c1
> 10,> 10,> 10,> 10,0.0045,,,,,,,,,,,,CCCCC(=O)N(Cc1cccc(OC(F)(F)F)c1)c1cc(F)cc(-c2nnn[nH]2)c1
> 10,> 10,> 10,> 10,0.0057,0.28,0.086,1.4,0.038,< 10,< 10,0.9,-8,105,3,0.037,CCC(=O)N(Cc1ccc(C(F)(F)F)cc1)c1cc(F)cc(-c2nnn[nH]2)c1
> 10,> 10,> 10,> 10,0.22,,,,,,,,,,,,CCC(=O)N(Cc1cccc(C(F)(F)F)c1)c1cccc(-c2nnn[nH]2)c1
> 10,> 10,> 10,> 10,0.0069,0.2,0.043,,0.051,12,< 10,,,,,,CCC(=O)N(Cc1ccc(OC(F)(F)F)cc1)c1cc(F)cc(-c2nnn[nH]2)c1
> 10,> 10,> 10,> 10,0.0024,,,,,,,,,,,,CCCCC(=O)N(Cc1ccc(C(F)(F)F)cc1)c1cc(F)cc(-c2nnn[nH]2)c1
> 10,> 10,> 10,> 10,0.019,,,,,,,,-10,112,,0.02,CCCCC(=O)N(Cc1ccc(OC(F)(F)F)cc1)c1cc(Cl)cc(-c2nnn[nH]2)c1

# Reference: ChEMBL document CHEMBL2034935, “Discovery of a Novel Series of CRTH2 (DP2) Receptor Antagonists Devoid of Carboxylic Acids” (ACS Med Chem Lett, 2011)
